This note sets out measurements from patent US8785481B2, “Ether benzotriazole derivatives” (Merck Sharp & Dohme Corp., priority 2010, dated 2014).

Molecules are shown by their SMILES.

For the experiment, the target named is T1, recombinant human mGluR2 (Homo sapiens, UniProt Q14416).
T1 construct: expressed in transfected cells
T1 sequence (Q14416 19-872): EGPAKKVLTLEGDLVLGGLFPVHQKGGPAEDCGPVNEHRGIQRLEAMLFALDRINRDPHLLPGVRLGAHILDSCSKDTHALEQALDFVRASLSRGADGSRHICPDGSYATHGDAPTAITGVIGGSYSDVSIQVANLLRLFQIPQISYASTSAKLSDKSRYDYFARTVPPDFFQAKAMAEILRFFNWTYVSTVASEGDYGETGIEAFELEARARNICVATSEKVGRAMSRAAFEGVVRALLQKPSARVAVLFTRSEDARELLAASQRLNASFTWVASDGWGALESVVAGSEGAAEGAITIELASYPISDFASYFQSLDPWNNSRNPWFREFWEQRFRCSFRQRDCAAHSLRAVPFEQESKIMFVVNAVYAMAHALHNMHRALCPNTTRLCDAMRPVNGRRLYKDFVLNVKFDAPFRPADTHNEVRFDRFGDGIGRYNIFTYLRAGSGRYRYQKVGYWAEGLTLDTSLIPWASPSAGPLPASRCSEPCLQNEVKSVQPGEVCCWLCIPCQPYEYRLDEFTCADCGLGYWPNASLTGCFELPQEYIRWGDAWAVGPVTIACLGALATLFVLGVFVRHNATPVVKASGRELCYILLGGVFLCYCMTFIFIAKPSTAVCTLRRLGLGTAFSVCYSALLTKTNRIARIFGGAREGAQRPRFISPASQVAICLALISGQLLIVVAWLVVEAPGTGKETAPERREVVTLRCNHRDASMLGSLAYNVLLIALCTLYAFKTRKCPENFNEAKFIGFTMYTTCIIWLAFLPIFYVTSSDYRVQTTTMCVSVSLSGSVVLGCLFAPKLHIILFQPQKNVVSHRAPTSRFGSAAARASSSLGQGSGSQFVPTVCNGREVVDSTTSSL
The experiment is described as follows: FLIPR Ca2+ mobilization assay, potentiation of glutamate (EC20) response. In kind it is cell-based. The conditions noted are these: CHO dhfr- cells expressing human mGluR2 and Gα16, EC20 glutamate (900 nM). The procedure:
Potencies are determined as follows. The compounds of the present invention may be tested in a fluorescence laser imaging plate reader (FLIPR) based assay. This assay is a common functional assay to monitor Ca^2+ mobilization in whole cells expressing recombinant receptor coupled with a promiscuous G-protein. CHO dhfr- cells stably expressing recombinant human mGluR2 and Gα16 loaded with Fluo-4 AM (Invitrogen, Carlsbad Calif.) are treated with varying concentrations of compounds and the Ca^2+ response is monitored on a FLIPR384 (Molecular Devices, Sunnydale Calif.) for agonist activity. The potentiation response is monitored after a subsequent addition of an EC20 concentration of glutamate (900 nM). The maximum calcium response at each concentration of compound for agonism or potentiation are plotted as dose responses curves fitted with a four parameters logistic equation giving EC50 and Hill coefficient using the iterative non linear curve fitting software program.
Consider `CC(C)(C)C(O)COc1ccc2c(nnn2CC2CC2)c1Br` (racemic) [Example 8-1, (±)-1-{[4-Bromo-1-(cyclopropylmethyl)-1H-benzotriazol-5-yl]oxy}-3,3-dimethylbutan-2-ol], for which the EC50 amounted to 0.072 µM.

As for `CC(C)(C)Cn1nnc2c(Br)c(OCc3cccc(-c4c[nH]nc4C#N)c3)ccc21` [Example 3-34, 4-[3-({[4-bromo-1-(2,2-dimethylpropyl)-1H-benzotriazol-5-yl]oxy}methyl)phenyl]-1H-pyrazole-3-carbonitrile], the EC50 was determined as 0.049 µM. Then `CC(C)(C)OC(=O)N1CCC(COc2ccc3c(nnn3CC3CC3)c2Br)C1` (centres unmarked) [Example 4-67, tert-butyl 3-({[4-bromo-1-(cyclopropylmethyl)-1H-benzotriazol-5-yl]oxy}methyl) pyrrolidine-1-carboxylate], with 0.02 µM; and `CC(C)(C)Cn1nnc2c(Br)c(OCc3ncccn3)ccc21` [Example 4-7, 4-bromo-1-(2,2-dimethyl-propyl)-5-(pyrimidin-2-ylmethoxy)-1H-benzotriazole], with 0.521 µM. The result for `COc1ccc2c(nnn2CC2CCCC2)c1Br` [Example 1-3, 4-bromo-1-(cyclopentylmethyl)-5-methoxy-1H-benzotriazole] reads 0.093 µM; that for `CC(C)[C@@H](C)n1nnc2c(Br)c(O)c(Br)cc21` [Example 2-4, 4,6-dibromo-1-[(1R)-1,2-dimethylpropyl]-1H-benzotriazol-5-ol], 0.373 µM; that for `CCOc1ccc2c(nnn2CC(C)(C)C)c1Br` [Example 1-4, 4-bromo-1-(2,2-dimethylpropyl)-5-ethoxy-1H-benzotriazole], 0.032 µM. As to `FC(F)CN1CCC(Oc2ccc3c(nnn3CC3CC3)c2Br)CC1` [Example 10-47, 4-bromo-1-(cyclopropylmethyl)-5-{[1-(2,2-difluoroethyl)piperidin-4-yl]oxy}-1H-benzotriazole], the EC50 was 0.424 µM. `N#CCOc1ccc2c(nnn2CC2CC2)c1Br` [Example 5-1, {[4-Bromo-1-(cyclopropylmethyl)-1H-benzotriazol-5-yl]oxy}acetonitrile]: the EC50 worked out at 0.281 µM. The result for `C=CCOc1ccc2c(nnn2CC2CC2)c1Br` [Example 10-120, 4-bromo-1-(cyclopropylmethyl)-5-(prop-2-en-1-yloxy)-1H-benzotriazole] reads 0.06 µM; that for `COc1cccc(COc2ccc3c(nnn3CC3CC3)c2Br)n1` [Example 6-1, 4-Bromo-1-(cyclopropylmethyl)-5-[(6-methoxypyridin-2-yl)methoxy]-1H-benzotriazole], 0.01 µM; that for `CC(C)(C)Cn1nnc2c(Br)c(OCc3ncccc3F)ccc21` [Example 4-42, 4-bromo-1-(2,2-dimethyl-propyl)-5-[(3-fluoropyridin-2-yl)methoxy]-1H-benzotriazole], 0.041 µM.

With `CC(C)(C)/C(COc1ccc2c(nnn2CC2CC2)c1Br)=N/O` [Example 9-1, 1-{[4-Bromo-1-(cyclopropylmethyl)-1H-benzotriazol-5-yl]oxy}-N-hydroxy-3,3-dimethylbutan-2-imine], the EC50 came to 0.084 µM.

Consider `CC(C)(C)Cn1nnc2c(Br)c(OCc3ccccc3Cl)ccc21` [Example 4-45, 4-bromo-5-[(2-chlorobenzyl)oxy]-1-(2,2-dimethylpropyl)-1H-benzotriazole], for which the EC50 turned out to be 0.065 µM.

As for `CC1(COc2ccc3c(nnn3CC3CC3)c2C(F)(F)F)CCN(C(=O)CO)CC1` [Example 4-79, 2-[4-({[1-(cyclopropylmethyl)-4-(trifluoromethyl)-1H-benzotriazol-5-yl]oxy}methyl)-4-methyl-piperidin-1-yl]-2-oxoethanol], the 50% effective concentration (EC50) came out at 0.007 µM.

Turning to `CC(C)(C)C(=O)COc1ccc2c(nnn2CC2CC2)c1Br` [Example 7-1, 1-{[4-Bromo-1-(cyclopropylmethyl)-1H-benzotriazol-5-yl]oxy}-3,3-dimethylbutan-2-one], the EC50 stood at 0.034 µM.

As to `Brc1c(OCc2cscn2)ccc2c1nnn2CC1CC1` [Example 10-56, 4-bromo-1-(cyclopropylmethyl)-5-(1,3-thiazol-4-ylmethoxy)-1H-benzotriazole], the EC50 was 0.15 µM. The result for `CC(C)(C)OC(=O)N1CCC(COc2ccc3c(nnn3CC3CC3)c2Cl)CC1` [Example 4-63, tert-butyl 4-({[4-chloro-1-(cyclopropylmethyl)-1H-benzotriazol-5-yl]oxy}methyl) piperidine-1-carboxylate] reads 0.034 µM. Then `FC(F)(F)c1c(OCc2ccccc2)ccc2c1nnn2CC1CC1` [Example 11-1, 5-(Benzyloxy)-1-(cyclopropylmethyl)-4-(trifluoromethyl)-1H-benzotriazole], with 0.009 µM; and `C[C@H](O)C(=O)N1CCC(COc2ccc3c(nnn3CC3CC3)c2Br)CC1` [Example 4-65, (2S)-1-[4-({[4-bromo-1-(cyclopropylmethyl)-1H-benzotriazol-5-yl]oxy}methyl)piperidin-1-yl]-1-oxopropan-2-ol], with 0.188 µM.

`Brc1c(OCC2CCC2)ccc2c1nnn2CC1CC1` [Example 10-140, 4-bromo-5-(cyclobutylmethoxy)-1-(cyclopropylmethyl)-1H-benzotriazole]: the EC50 was found to be 0.039 µM. As to `CC(C)(C)Cn1nnc2c(Br)c(OCc3cccc(-c4ccc(O)c(C(=O)O)c4)c3)ccc21` [Example 3-3, 3′-({[4-bromo-1-(2,2-dimethylpropyl)-1H-benzotriazol-5-yl]oxy}methyl)-4-hydroxy-biphenyl-3-carboxylic acid], the EC50 worked out at 0.0035 µM. The result for `Brc1c(OCCn2cccn2)ccc2c1nnn2CC1CC1` [Example 10-275, 4-bromo-1-(cyclopropylmethyl)-5-[2-(1H-pyrazol-1-yl)ethoxy]-1H-benzotriazole] reads 0.214 µM; that for `COc1ccc2c(nnn2CCCC(F)(F)F)c1Br` [Example 1-11, 4-bromo-5-methoxy-1-(4,4,4-trifluorobutyl)-1H-benzotriazole], 0.051 µM; that for `CC(C)(C)Cn1nnc2c(Br)c(OCc3cccc(N4CCCCC4)n3)ccc21` [Example 4-27, 4-bromo-1-(2,2-dimethylpropyl)-5-[(6-piperidin-1-ylpyridin-2-yl)methoxy]-1H-benzotriazole], 0.288 µM. Then `Brc1c(OCC2COCCO2)ccc2c1nnn2CC1CC1` (centres unmarked) [Example 10-73, 4-bromo-1-(cyclopropylmethyl)-5-(1,4-dioxan-2-ylmethoxy)-1H-benzotriazole], with 0.415 µM. In the case of `Cc1cnc(C#N)c(-c2cccc(COc3ccc4c(nnn4CC(C)(C)C)c3Br)c2)c1` [Example 3-26, 3-[3-({[4-bromo-1-(2,2-dimethylpropyl)-1H-benzotriazol-5-yl]oxy}methyl)phenyl]-5-methylpyridine-2-carbonitrile], the EC50 was determined as 0.016 µM. The result for `CCOc1ccc2c(nnn2CC2CC2)c1Br` [Example 10-253, 4-bromo-1-(cyclopropylmethyl)-5-ethoxy-1H-benzotriazole] reads 0.53 µM; that for `CC(Oc1ccc2c(nnn2CC(C)(C)C)c1Br)c1ccccc1` (centres unmarked) [Example 3-15, 4-bromo-1-(2,2-dimethylpropyl)-5-(1-phenylethoxy)-1H-benzotriazole], 0.091 µM; that for `CC(C)(C)Cn1nnc2c(Br)c(OCc3cccc4ccnn34)ccc21` [Example 4-5, 4-bromo-1-(2,2-dimethylpropyl)-5-(pyrazolo[1,5-a]pyridin-7-ylmethoxy)-1H-benzotriazole], 0.042 µM. Then `FC(F)(F)CN1CCN(CCOc2ccc3c(nnn3CC3CC3)c2Br)CC1` [Example 10-220, 4-bromo-1-(cyclopropylmethyl)-5-{2-[4-(2,2,2-trifluoroethyl)piperazin-1-yl]ethoxy}-1H-benzotriazole], with 0.222 µM; and `O=C1CCC(Oc2ccc3c(nnn3CC3CC3)c2Br)CC12CC2` (centres unmarked) [Example 10-171, 7-{[4-bromo-1-(cyclopropyl-methyl)-1H-benzotriazol-5-yl]oxy}spiro[2.5]octan-4-one], with 0.087 µM.

By EC50 is commonly meant the concentration giving half of the maximal effect.
